Structures are written as SMILES.

These results are taken from ChEMBL document CHEMBL1152696, “Interaction study of bioactive molecules with fibrinogen and human platelets determined by 1H NMR relaxation experiments” (Bioorg Med Chem, 2009).

The nature of assay [1]: Binding interaction with fibrinogen assessed as spin lattice relaxation rate enumerated as normalized affinity index at given concentration and fixed temperature by NMR relaxation experiment.
Assay [2] concerns Platelet. The assay is described as follows: Binding interaction with platelet assessed as spin lattice relaxation rate enumerated as normalized affinity index at given concentration and fixed temperature by NMR relaxation experiment. The assay is classed as cell-based.

With `CNC[C@H](O)c1ccc(O)c(O)c1`, the [A]T,L in assay [1] was 26900 /mol.dm'3. The [A]T,L (10'-8 /no of units.cm'3) in assay [2] is 4.66.
`CC(C)NCC(O)c1ccc(O)c(O)c1` (centres undefined): the [A]T,L in assay [1] was 9730 /mol.dm'3. Also, the [A]T,L (10'-8 /no of units.cm'3) in assay [2] is 4.47.
